Source: a melting point compilation (Tetko et al.; mined from patent text by program, amines drawn as free bases though some values may be those of a salt)

| melting point [°C] | Structure (SMILES) |
| --- | --- |
| 210 to 212 | O=C(NCc1cccnc1)c1ccc2n1Cc1ccccc1N(C(=O)c1ccc(-c3ccccc3CN3CCCC3)cc1)C2 |
| 180 to 182 | CS(=O)c1nc(O)nn1-c1ccccc1 (stereo not given) |
| 131 to 133 | CC(=O)c1cc(CN2CCNC2=O)ccc1O |
| 60.5 to 61 | CCCCOC(=O)Cc1ccc(CNS(=O)(=O)c2ccccc2)cc1 |
| 156 to 157 | CCCNC(=O)C1(CCCCN2CCC(N3Cc4ccccc4C3=O)CC2)C(c2ccccc2)=Cc2ccccc21 (stereo not given) |
| 123 to 124 | NC(=O)COc1ccc(OCCn2ccnc2)cc1 |
| 60 to 61 | CCCCCCCC[Si](C)(C)CCSCCNC(=O)n1cc(F)c(=O)[nH]c1=O |
| 81 to 82 | CCOP(=O)(Cc1ccc(C(=O)N(Cc2ccccc2)c2ccc(Cl)cc2)cc1)OCC |
| 169 to 171 | Cc1nc(N2CCN(Cc3ccccc3)C2=O)sc1C(=O)NCc1ccccc1 |
| 304 to 307 | C=C1SC(=O)N(c2ccc3cc(-c4cc5c(c(-c6ccncc6)c4)OCO5)ccc3c2)C1=O |
| 95 to 96 | Cc1cc2ccccc2n1-c1ccc(OCc2ccccc2)cc1 |
| 117 to 121 | CCOC(CNc1nc2ccccc2[nH]1)OCC |
| 48 to 55 | O=C(NCCCCCCOC(=O)N1CCC(O)CC1)Oc1ccc(Oc2ccccc2)cc1 |
| 124 to 125 | CCCCN=C1c2ccccc2CCc2c1nc1c(cnn1CC)c2NCCCC |
| 103 | O=S(=O)(Cc1ccccc1Cl)c1nnc(C(F)(F)F)s1 |
| 130 to 131 | COCc1cc(Cl)cc(C(=O)c2nc(OC)cc(OC)n2)c1[N+](=O)[O-] |
| 155 to 157 | COC(=O)[C@H](Cc1ccc(-c2cn(C)c(=O)n(C)c2=O)cc1)NC(=O)c1c(C)cccc1Cl |
| 62 to 67 | CC(C)C[C@@H](C(=O)N1CCN(C(c2ccc(F)cc2)c2ccc(F)cc2)CC1)N(Cc1ccc(OC(C)(C)C)cc1)Cc1ccc(OC(C)(C)C)cc1 |
| 177 to 179 | CS(=O)(=O)c1ccc(-c2c(-c3ccccc3)nc3n2CCS3)cc1 |
| 70.8 to 71.7 | COc1ccc(NCCNC(=O)c2ccc(OCC=C(C)CCC=C(C)C)cc2)nc1 |
| 194 to 195 | Nc1cc(C(F)(F)F)cc2nc3c4ccccc4c4ccccc4c3nc12 |
| 117 | C=C(C)n1c(=O)n(CC2CN(Cc3ccccc3)CCO2)c2ccccc21 (stereo not given) |

| melting point [°C] | Structure (SMILES) |
| --- | --- |
| 308 to 312 | CC(C)n1c(S)nc(-c2ccc(F)cc2)c1-c1ccc(F)cc1 |
| 115 to 120 | O=C1Nc2ccccc2C1C1CCN(CC(O)C2COc3ccccc3O2)CC1 (stereo not given) |
| 125 to 132 | Cc1onc(NS(=O)(=O)c2ccccc2-c2ccc(-c3ncccn3)cc2CN2CCC(C)(C)C2=O)c1C |
| 129 to 130 | Cc1oc(-c2ccccc2)nc1COc1ccc(I)cn1 |
| 128 to 130 | Cc1ccc2c(Cl)cc(C(=O)NCc3ccc(Cl)cc3)c(O)c2n1 |
| 71 to 72 | CCCCCCCCC(CC(=O)Nc1ccccc1)CC(C)[N+](=O)[O-] (stereo not given) |
| 135 to 137 | CSc1ccc2ncc(N)c(-c3ccccc3)c2c1 |
| 169 to 173 | COC(=O)C1=Cc2cccc(C3CCN(S(=O)(=O)c4ccc(C)cc4)CC3)c2CCC1 |
| 172 | Cn1cc(C#N)c(Nc2ccccc2[N+](=O)[O-])n1 |
| 151 | Nc1ccc(C(=O)Nc2ccc(-c3ccc(C(=O)N4CCN5CCC4CC5)o3)cc2)cc1 |
| 58 to 59 | CCc1coc(Cc2ccc([N+](=O)[O-])cc2)n1 |
| 148 to 149 | CNC(=NS(C)(=O)=O)NCCSCc1nccc(NC(N)=NCC(F)(F)F)n1 |
| 145 to 146 | N#CCOc1coc2ccccc2c1=O |
| 232 to 234 | Nc1nc(N)c2cc(Sc3ccc(Cl)c(Cl)c3)ccc2n1 |
| 152 to 154 | COC(=O)C1Cc2c([nH]c3ccccc23)C(C)N1 (stereo not given) |
| 182 to 183 | CSc1c(CC(=O)O)ccc2c3ccccc3n(Cc3ccccc3)c12 |
| 100 | CCC1Sc2cc(Br)ccc2NC1=O (stereo not given) |
| 223 to 224 | O=C1CN2Cc3cc(OCCCC(=O)N(CCO)CC4CCCCC4)ccc3N=C2N1 |
| 202 to 204 | O=C(O)C1Oc2cc3onc(-c4ccccc4)c3cc2O1 (stereo not given) |
| 162 to 163 | CCCOc1ccc(C2=NN(C(=O)Nc3ccc(C(F)(F)F)cc3)CC2N(CCC)C(=O)OCC(Cl)(Cl)Cl)cc1 (stereo not given) |
| 285 to 287 | COc1ccc2cc(-c3nn(C(C)c4oc5ccccc5c(=O)c4-c4cccc(F)c4)c4ncnc(N)c34)ccc2c1 (stereo not given) |
| > 275 | Nc1cc2[nH]c(=O)ccc2cn1 |

| melting point [°C] | Structure (SMILES) |
| --- | --- |
| 123 to 124 | CC(C)Oc1ccc2c(c1)Cc1ccccc1C2=O |
| 172 to 173 | Cc1nc(-n2ccc(C(F)(F)F)cc2=O)sc1C(=O)NCc1cccnc1 |
| 168 to 170 | N#Cc1cc(Cl)cc(Oc2ccc(CC(=O)Nc3ccc(S(N)(=O)=O)cc3Br)cc2Br)c1 |
| 235 to 236 | NC(=O)c1c(NC(=O)C2CC2)sc2c(O)c(Br)ccc12 |
| 137 to 140 | Cc1c(C)c2c(c(C)c1NC(=O)OCC(Cl)(Cl)Cl)C(c1ccc(C(C)C)cc1)CO2 (stereo not given) |
| 216 to 218 | CCOCc1nc2c(N)nc3cc(OCc4ccccc4C)ccc3c2n1CC(C)C |
| 114 to 117 | CCOC(=O)Cc1cc(O)n[nH]1 |
| 192 to 193 | Cc1ccc(NC(=S)NC(NC(=O)c2ccc(C)cc2)C(F)(F)F)cc1 (stereo not given) |
| 174 to 179 | O=C1c2c(O)ccc(O)c2C(=O)c2c(NCCN=Cc3ccccc3)ccc(NCCN=Cc3ccccc3)c21 |
| 248 | CS(=O)(=O)c1ccc(Cn2ccc3c4c(N)nc(N)nc4ccc32)cc1 |
| 150 to 156 | Nc1ccc2c(c1)Sc1ccccc1N2 |
| 134 | Cc1ccc(C2CCCN2S(=O)(=O)c2ccc(F)cc2)c(C)c1 (racemic) |
| 120 to 124 | CCC(O)(c1cccc(NS(=O)(=O)CC)c1)c1c[nH]cn1 (stereo not given) |
| 244 to 246 | CC(C)Cn1cnc2c(N)nc3ccc(-c4cccnc4)cc3c21 |
| 185 to 193 | CN1C(=O)CC[C@]2(C)c3ccc(Sc4nc(-c5ccccc5)nc5ccccc45)cc3CC[C@@H]12 |
| 178 | CC(=O)OC1CSC(Oc2cncc(-c3ccc(F)c(C#N)c3)c2)C(OC(C)=O)C1OC(C)=O (stereo not given) |
| 183 to 191 | CCCCCCCCCCCCCCCC(=O)OCC(CO)CCn1cnc2c(=O)[nH]c(N)nc21 (stereo not given) |
| 143 to 144 | CS(=O)(=O)c1ccc(/C(=C(\CCO[N+](=O)[O-])C(=O)O)c2ccc(Cl)cc2)cc1 |
| 71 to 72 | N#Cc1ccc(C(F)(F)F)c(C(F)(F)F)c1 |
| 164 to 169 | O=c1ccc(C(c2ccccc2)c2ccc(Cl)cc2)c[nH]1 (stereo not given) |
| 190 to 192 | COc1ccc2c(c1)CCCC2n1cc[nH]c1=S (stereo not given) |

| Structure (SMILES) | melting point [°C] |
| --- | --- |
| C=C(C(=O)OCC)c1cc(-c2cc3c(cc2C)C(C)(C)CCC3(C)C)ccc1OCOC | 100 to 101 |
| CN1CCN(Cc2c(O)ccc3c2OCO3)CC1 | 85 to 87 |
| O=C1Nc2ccccc2C1(O)c1ccc2c(c1)OCO2 (stereo not given) | 177 to 180 |
| C=CCN1CCC2(CC1)c1ccccc1C(=O)c1c(OC)cccc12 | 115 to 117 |
| CC(C)(C)NCC(O)c1ccc(N)c(C(F)(F)F)c1 (stereo not given) | 145 to 147 |
